Test results taken from patent US9822130B2, “Triazolo-pyrazinyl derivatives useful as soluble guanylate cyclase activators” (Merck Sharp & Dohme Corp., priority 2014, dated 2017).

biological target: T1, sGC α1/β1 heterodimer stably expressed in CHO-K1 cell line (CHO-K1/sGC) (Homo sapiens, UniProt Q02108+Q02153); assay: Cell-based sGC Functional Assay (CASA Assay), cGMP generation; details: CHO-K1/sGC cells, 1 hr at 37° C., cGMP by HTRF, 4P fit; presence or absence of 1 μM DETA-NO not given; read-out: IP (nM) (inflection point)
T1 construct: expressed in transfected cells
T1 sequence (Q02108 1-690): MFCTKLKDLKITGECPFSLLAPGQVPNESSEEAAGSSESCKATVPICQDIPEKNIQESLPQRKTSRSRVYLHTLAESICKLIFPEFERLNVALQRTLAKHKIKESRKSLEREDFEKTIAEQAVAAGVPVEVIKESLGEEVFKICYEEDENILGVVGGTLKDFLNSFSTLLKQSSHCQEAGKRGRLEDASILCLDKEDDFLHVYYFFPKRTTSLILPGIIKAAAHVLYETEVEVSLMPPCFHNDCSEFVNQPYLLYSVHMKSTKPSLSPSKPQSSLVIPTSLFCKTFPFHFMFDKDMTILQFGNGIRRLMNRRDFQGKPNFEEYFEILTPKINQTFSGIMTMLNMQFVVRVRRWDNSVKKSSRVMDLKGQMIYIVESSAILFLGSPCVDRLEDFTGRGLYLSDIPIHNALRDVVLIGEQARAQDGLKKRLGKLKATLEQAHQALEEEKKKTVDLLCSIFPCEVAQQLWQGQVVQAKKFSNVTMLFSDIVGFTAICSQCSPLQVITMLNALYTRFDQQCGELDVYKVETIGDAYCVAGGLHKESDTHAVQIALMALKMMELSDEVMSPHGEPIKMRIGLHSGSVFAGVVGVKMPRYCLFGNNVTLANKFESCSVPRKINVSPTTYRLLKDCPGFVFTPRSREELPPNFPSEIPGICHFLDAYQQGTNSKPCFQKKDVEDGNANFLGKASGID
T1 sequence (Q02153 1-619): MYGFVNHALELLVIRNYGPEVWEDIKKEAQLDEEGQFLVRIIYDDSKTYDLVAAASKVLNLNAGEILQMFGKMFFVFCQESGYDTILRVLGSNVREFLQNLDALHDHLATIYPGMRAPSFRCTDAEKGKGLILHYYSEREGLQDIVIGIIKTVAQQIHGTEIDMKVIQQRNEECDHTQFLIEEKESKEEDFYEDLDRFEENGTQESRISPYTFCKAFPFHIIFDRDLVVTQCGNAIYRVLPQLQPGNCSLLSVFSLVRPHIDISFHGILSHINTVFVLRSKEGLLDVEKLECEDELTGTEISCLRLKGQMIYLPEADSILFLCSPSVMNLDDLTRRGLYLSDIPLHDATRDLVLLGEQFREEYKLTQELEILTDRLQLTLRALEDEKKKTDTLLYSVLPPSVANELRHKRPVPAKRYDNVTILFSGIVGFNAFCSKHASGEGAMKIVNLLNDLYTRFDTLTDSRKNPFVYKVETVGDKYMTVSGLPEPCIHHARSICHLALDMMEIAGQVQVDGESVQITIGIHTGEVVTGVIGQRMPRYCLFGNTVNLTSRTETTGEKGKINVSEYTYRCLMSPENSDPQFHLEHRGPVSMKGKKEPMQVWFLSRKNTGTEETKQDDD
Outline: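 CHO-K1 cells stably expressing human sGC α1/β1 (4×10^5/mL, 0.5 mM IBMX) were treated with compounds (2.5% DMSO final) ± 1 μM DETA-NO for 1 hr at 37° C. Intracellular cGMP measured by HTRF. Activity expressed as % of Compound A maximal cGMP; IP and maximum fold induction from 4P fit.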

Row | SMILES | EC50
1 | CC1(c2ccc(C#N)cn2)C(=O)Nc2nc(-c3cn4ncnc4c(CCCC(F)(F)F)n3)nc(N)c21 (centres unmarked) [Example 48A, 6-(4-amino-5-methyl-6-oxo-2-(8-(4,4,4-trifluorobutyl)-[1,2,4]triazolo[1,5-a]pyrazin-6-yl)-6,7-dihydro-5H-pyrrolo[2,3-d]pyrimidin-5-yl)nicotinonitrile] | 77.9 nM
2 | CC1(c2cnc(C(F)(F)F)cn2)C(=O)Nc2nc(-c3cn4ncnc4c(CCCC(F)(F)F)n3)nc(N)c21 (centres unmarked) [Example 50B, 4-amino-5-methyl-2-(8-(4,4,4-trifluorobutyl)-[1,2,4]triazolo[1,5-a]pyrazin-6-yl)-5-(5-(trifluoromethyl)pyrazin-2-yl)-5H-pyrrolo[2,3-d]pyrimidin-6(7H)-one] | 150 nM
3 | CCCc1nc(-c2nc(N)c3c(n2)NC(=O)[C@@]3(C)c2ccc(F)cc2)cn2ncnc12 [Example 52A, (S)-4-amino-5-(4-fluorophenyl)-5-methyl-2-(8-propyl-[1,2,4]triazolo[1,5-a]pyrazin-6-yl)-5,7-dihydro-6H-pyrrolo[2,3-d]pyrimidin-6-one] | 63.2 nM
4 | CCCc1nc(-c2nc(N)c3c(n2)NC(=O)C3(C)c2ccc(Cl)cc2)cn2ncnc12 (centres unmarked) [Example 53A, 4-amino-5-(4-chlorophenyl)-5-methyl-2-(8-propyl-[1,2,4]triazolo[1,5-a]pyrazin-6-yl)-5H-pyrrolo[2,3-d]pyrimidin-6(7H)-one] | 26.9 nM
5 | CCCc1nc(-c2nc(N)c3c(n2)NC(=O)C3(C)c2ccc(F)cn2)cn2ncnc12 (centres unmarked) [Example 54B, 4-amino-5-(5-fluoropyridin-2-yl)-5-methyl-2-(8-propyl-[1,2,4]triazolo[1,5-a]pyrazin-6-yl)-5H-pyrrolo[2,3-d]pyrimidin-6(7H)-one] | 318 nM
6 | CCCc1nc(-c2nc(N)c3c(n2)NC(=O)C3(c2ccc(C(F)(F)F)cn2)C2CC2)cn2ncnc12 (centres unmarked) [Example 56A, 4-amino-5-cyclopropyl-2-(8-propyl-[1,2,4]triazolo[1,5-a]pyrazin-6-yl)-5-(5-(trifluoromethyl)pyridin-2-yl)-5H-pyrrolo[2,3-d]pyrimidin-6(7H)-one] | 384 nM
7 | CCCc1nc(-c2nc(N)c3c(n2)NC(=O)C3(c2ccc(Cl)cn2)C2CC2)cn2ncnc12 (centres unmarked) [Example 57A, 4-amino-5-(5-chloropyridin-2-yl)-5-cyclopropyl-2-(8-propyl-[1,2,4]triazolo[1,5-a]pyrazin-6-yl)-5H-pyrrolo[2,3-d]pynmidin-6(7H)-one] | 577 nM
8 | CCCc1nc(-c2nc(N)c3c(n2)NC(=O)C3(c2ccc(F)c(F)c2)C2CC2)cn2ncnc12 (centres unmarked) [Example 58A, 4-amino-5-cyclopropyl-5-(3,4-difluorophenyl)-2-(8-propyl-[1,2,4]triazolo[1,5-a]pyrazin-6-yl)-5H-pyrrolo[2,3-d]pyrimidin-6(7H)-one] | 242 nM
9 | CCCc1nc(-c2nc(N)c3c(n2)NC(=O)C3(c2ccc(F)cn2)C2CC2)cn2ncnc12 (centres unmarked) [Example 59A, 4-amino-5-cyclopropyl-5-(5-fluoropyridin-2-yl)-2-(8-propyl-[1,2,4]triazolo[1,5-a]pyrazin-6-yl)-5H-pyrrolo[2,3-d]pyrimidin-6(7H)-one] | 263 nM
10 | CCCCc1nc(-c2nc(N)c3c(n2)NC(=O)C3(C)c2ccc(Cl)c(F)c2)cn2ncnc12 (centres unmarked) [Example 62B, 4-amino-2-(8-butyl-[1,2,4]triazolo[1,5-a]pyrazin-6-yl)-5-(4-chloro-3-fluorophenyl)-5-methyl-5H-pyrrolo[2,3-d]pyrimidin-6(7H)-one] | 51 nM
11 | CCCCc1nc(-c2nc(N)c3c(n2)NC(=O)C3(c2ccc(F)cn2)C2CC2)cn2ncnc12 (centres unmarked) [Example 66A, 4-amino-2-(8-butyl-[1,2,4]triazolo[1,5-a]pyrazin-6-yl)-5-cyclopropyl-5-(5-fluoropyridin-2-yl)-5H-pyrrolo[2,3-d]pyrimidin-6(7H)-one] | 34.2 nM
12 | CCCCc1nc(-c2nc(N)c3c(n2)NC(=O)C3(C)c2ccc(C(F)(F)F)cn2)cn2ncnc12 (centres unmarked) [Example 67B, 4-amino-2-(8-butyl-[1,2,4]triazolo[1,5-a]pyrazin-6-yl)-5-methyl-5-(5-(trifluoromethyl)pyridin-2-yl)-5H-pyrrolo[2,3-d]pyrimidin-6(7H)-one] | 25.5 nM
13 | CCCCc1nc(-c2nc(N)c3c(n2)NC(=O)C3(c2ccc(C(F)(F)F)cn2)C2CC2)cn2ncnc12 (centres unmarked) [Example 70A, 4-amino-2-(8-butyl-[1,2,4]triazolo[1,5-a]pyrazin-6-yl)-5-cyclopropyl-5-(5-(trifluoromethyl)pyridin-2-yl)-5H-pyrrolo[2,3-d]pyrimidin-6(7H)-one] | 41.8 nM

The next molecules have a lower EC50 than those just listed; values first:

Row | EC50 | SMILES
14 | 10.1 nM | Cc1ccc(C2(C)C(=O)Nc3nc(-c4cn5ncnc5c(CCCC(F)(F)F)n4)nc(N)c32)nc1 (centres unmarked) [Example 46B, 4-amino-5-methyl-5-(5-methylpyridin-2-yl)-2-(8-(4,4,4-trifluorobutyl)-[1,2,4]triazolo[1,5-a]pyrazin-6-yl)-5H-pyrrolo[2,3-d]pynmidin-6(7H)-one]
15 | 22.6 nM | CCCCc1nc(-c2nc(N)c3c(n2)NC(=O)[C@@]3(C)c2ccc(F)cc2)cn2ncnc12 [Example 60A, (S)-4-amino-2-(8-butyl-[1,2,4]triazolo[1,5-a]pyrazin-6-yl)-5-(4-fluorophenyl)-5-methyl-5,7-dihydro-6H-pyrrolo[2,3-d]pyrimidin-6-one]
16 | 9.7 nM | CCCCc1nc(-c2nc(N)c3c(n2)NC(=O)C3(C)c2ccc(F)cn2)cn2ncnc12 (centres unmarked) [Example 61B, 4-amino-2-(8-butyl-[1,2,4]triazolo[1,5-d]pyrazin-6-yl)-5-(5-fluoropyridin-2-yl)-5-methyl-5H-pyrrolo[2,3-d]pyrimidin-6(7H)-one]
17 | 21.9 nM | CCCCc1nc(-c2nc(N)c3c(n2)NC(=O)C3(C)c2ccc(Cl)cc2)cn2ncnc12 (centres unmarked) [Example 63A, 4-amino-2-(8-butyl-[1,2,4]triazolo[1,5-a]pyrazin-6-yl)-5-(4-chlorophenyl)-5-methyl-5H-pyrrolo[2,3-d]pyrimidin-6(7H)-one]
18 | 5.1 nM | CCCCc1nc(-c2nc(N)c3c(n2)NC(=O)C3(C)c2ccc(F)c(F)c2)cn2ncnc12 (centres unmarked) [Example 64B, 4-amino-2-(8-butyl-[1,2,4]triazolo[1,5-a]pyrazin-6-yl)-5-(3,4-difluorophenyl)-5-methyl-5H-pyrrolo[2,3-d]pyrimidin-6(7H)-one]
19 | 2.6 nM | CCCCc1nc(-c2nc(N)c3c(n2)NC(=O)C3(c2ccc(F)c(F)c2)C2CC2)cn2ncnc12 (centres unmarked) [Example 65A, 4-amino-2-(8-butyl-[1,2,4]triazolo[1,5-a]pyrazin-6-yl)-5-cyclopropyl-5-(3,4-difluorophenyl)-5H-pyrrolo[2,3-d]pyrimidin-6(7H)-one]
20 | 18.7 nM | CCCCc1nc(-c2nc(N)c3c(n2)NC(=O)C3(c2ccc(Cl)cn2)C2CC2)cn2ncnc12 (centres unmarked) [Example 68A, 4-amino-2-(8-butyl-[1,2,4]triazolo[1,5-a]pyrazin-6-yl)-5-(5-chloropyridin-2-yl)-5-cyclopropyl-5H-pyrrolo[2,3-d]pyrimidin-6(7H)-one]
21 | 13.7 nM | CCCCc1nc(-c2nc(N)c3c(n2)NC(=O)C3(C)c2ccc(Cl)cn2)cn2ncnc12 (centres unmarked) [Example 69A, 4-amino-2-(8-butyl-[1,2,4]triazolo[1,5-a]pyrazin-6-yl)-5-(5-chloropyridin-2-yl)-5-methyl-5H-pyrrolo[2,3-d]pyrimidin-6(7H)-one]
22 | 5.5 nM | CCCCc1nc(-c2nc(N)c3c(n2)NC(=O)C3(C)c2ccc(C)cn2)cn2ncnc12 (centres unmarked) [Example 71B, 4-amino-2-(8-butyl-[1,2,4]triazolo[1,5-a]pyrazin-6-yl)-5-methyl-5-(5-methylpyridin-2-yl)-5H-pyrrolo[2,3-d]pyrimidin-6(7H)-one]

same assay, conditions: CHO-K1/sGC cells, 1 hr at 37° C., cGMP by HTRF; presence or absence of 1 μM DETA-NO not given; read-out: % Act. (percent activation relative to maximum cGMP production of Compound A = 100%)

Row | Emax | SMILES
23 | 90% | CCCCc1nc(-c2nc(N)c3c(n2)NC(=O)C3(C)c2ccc(F)c(F)c2)cn2ncnc12 (centres unmarked) [Example 64B, 4-amino-2-(8-butyl-[1,2,4]triazolo[1,5-a]pyrazin-6-yl)-5-(3,4-difluorophenyl)-5-methyl-5H-pyrrolo[2,3-d]pyrimidin-6(7H)-one]
